According to patent US10507215B2, “Compounds for the treatment of addiction” (Amygdala Neurosciences, Inc., priority 2011, dated 2019):

How the values were obtained:
Type in all cases: in vivo
[1] = tested on: Male SD rats; test: Rat nicotine self administration, acute treatment
Description: Male SD rats were trained to self administer i.v. nicotine (0.03 mg/kg/inj) daily (Monday to Friday) in standard operant chambers with retractable levers (MED Associates, Inc) as previously published (Levin et al., 2003; Levin et al., 2007). During the daily 45 min session, rats received 0.05 ml infusion of 0.03 mg/kg/infusion of nicotine every time the active lever was pressed. A cue light and tone turned on for 0.5 sec together with the activation of a pump that delivered the nicotine solution. Daily sessions were run for at least 10 days before the initiation of drug testing. Solutions of compounds of Example 2 and Example 5 were prepared fresh daily in Formulation 2B: 25% PEG400/5% Vit E TPGS/1% SLS/69% water with 0.5% Methocel) for oral dosing. Compound of Example 2 doses were administered in a counterbalanced design for testing 1 hr before each nicotine session. Every rat received all drug doses and vehicle in a randomly assigned order. The oral drug administrations were made twice per week.
Compound of Example 5 was tested in a study using 4 independent groups. Each group received either oral vehicle or 1 of the 3 doses of compound of Example 5 (5, 10 or 30 mg-eq/kg). […] The 5 mg/kg dose was ineffective.

[2] = tested on: male Sprague Dawley (SD) rats; test: Rat cocaine cue reinstatement; details: for inhibition of cocaine cue reinstatement vs vehicle: 1 hr before session
Description: Training of male Sprague Dawley (SD) rats had 3 separate stages. First, during self administration, animals were trained to lever press for cocaine with presentation of concomitant cues associated with drug delivery. Rats that reached criteria for addiction were included in the study. Afterward, during cue extinction, cocaine-cue dependent behavior was extinguished. Lastly, during cocaine cue reinstatement, the effect of compounds was tested on lever presses upon cue presentation (FIG. 2).
Rats were trained to self administer i.v. cocaine (0.35 mg/kg/injection) daily (Monday to Friday) in standard operant chambers with retractable levers (Coulbourn Instruments, PA). During the daily 2 hr session, rats received a 0.05 ml infusion of 0.35 mg/kg cocaine every time the active lever was pressed. A cue light and tone turned on for 2 sec together with activation of a pump that delivered the cocaine solution. Rats were required to maintain an infusion rate of ≥20+ per day for at least 10 days before being moved to extinction training.
During extinction sessions lever presses no longer produced cocaine infusion and cue light/tone presentation was absent. Rats received a maximum of 15 extinction sessions.
On the next day after reaching extinction criteria, rats were treated orally with vehicle (Formulation 2B: 25% PEG400/5% Vit E TPGS/1% SLS/69% water with 0.5% Methocel) or drug (compound of Example 2 or compound of Example 5) before the cue reinstatement session. Cue reinstatement began with a tone and cue light. This 2 hr session was identical to the self-administration session (cue light and tone present upon active lever press) except that no cocaine was delivered. The number of active lever presses was compared to extinction lever responding. This is considered a measure of reinstatement. The next day, rats were returned to extinction sessions for at least 2 or 3 more sessions. Rats then received a second and last reinstatement session with an opposite treatment to the one received on the first reinstatement session (vehicle or drug treatment). […] The light/tone presentation triggers this response and it is interpreted as a measure of reinstatement even though cocaine is not available.

[3] = tested on: Male SD rats; test: Rat nicotine self administration, 7-day chronic treatment; details: 7 consecutive days
Description: Upon completion of the acute compound of Example 5 treatment study, the same animals were used to test the effect of 7-day chronic oral administration of compound of Example 5 in the nicotine self administration model. Rats were treated orally with compound of Example 5 (5, 10 or 30 mg-eq/kg) or vehicle 1 hr before nicotine self administration session for 7 consecutive days. […] Similar to the acute treatment, the 5 mg-eq/kg dose was ineffective (FIG. 7). […] Animals in nicotine self administration studies had to reach pre defined criteria (e.g. rat strain, minimum number of nicotine infusions, consistent baseline nicotine self administration throughout the study, patent iv catheters, etc.) to be included in analysis.

Compound: O=C(NCc1ccc(-c2cc[nH]c(=O)c2)cc1)c1c(Cl)cccc1Cl [Compound 2, 2,6-dichloro-N-[4-(2-oxo-1,2-dihydro-pyridin-4-yl)-benzyl]-benzamide]
- effect on number of nicotine infusions ([1]; 1 mg/kg oral): without effect
- effect on number of nicotine infusions ([1]; 5 mg/kg oral): without effect

Compound: O=C(NCc1ccc(-c2ccn(COP(=O)(O)O)c(=O)c2)cc1)c1c(Cl)cccc1Cl [Compound 14, phosphoric acid mono-(4-{4-[(2,6-dichloro-benzoylamino)-methyl]-phenyl}-2-oxo-2H-pyridin-1-ylmethyl) ester]
- effect on cocaine cue reinstatement ([2]; 2.5 mg-eq/kg oral, lowest dose tested): not significantly different from vehicle
- inhibition of cocaine cue reinstatement vs vehicle ([2]; 2.5 mg/kg eq oral, N.S.): 30%
- inhibition of cocaine cue reinstatement vs vehicle ([2]; 5 mg-eq/kg oral): 59%
- inhibition of cocaine cue reinstatement vs vehicle ([2]; 10 mg-eq/kg oral): 55%
- inhibition of cocaine cue reinstatement vs vehicle ([2]; 30 mg-eq/kg oral): 50%
- effect on number of nicotine infusions ([3]; 5 mg-eq/kg oral): ineffective
- inhibition of number of nicotine infusions vs vehicle ([3]; 10 mg-eq/kg oral): 48%
- inhibition of number of nicotine infusions vs vehicle ([3]; 30 mg-eq/kg oral): 62%
- effect on number of nicotine infusions ([1]; 5 mg/kg dose oral, independent groups): ineffective
- inhibition of number of nicotine infusions vs vehicle ([1]; 10 mg-eq/kg oral, independent groups): 51%
- inhibition of number of nicotine infusions vs vehicle ([1]; 30 mg-eq/kg oral, independent groups): 68%
